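Five compound concentrations were applied to cells in 96-well plates for 48 hours; endpoints were derived by simple linear interpolation of the resulting dose-response curve. At the GI50, growth is halved.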 The source made the active and inactive calls. Cut-off read from the data, not from the text of the source: active = GI50 up to about 1.1 µM and inactive = higher.
Experiments:
Experiment in all cases: NCI tumour cell line growth inhibition, 48 h
Hs-578T = test system: Hs-578T
DU-145 = test system: DU-145
UACC-257 = test system: UACC-257
NCI-H522 = test system: NCI-H522
HOP-92 = test system: HOP-92
786-0 = test system: 786-0
A498 = test system: A498
LOX IMVI = test system: LOX IMVI
HT-29 = test system: HT-29
RPMI-8226 = test system: RPMI-8226
MOLT-4 = test system: MOLT-4
MCF7 = test system: MCF7
HCC 2998 = test system: HCC 2998
MDA-MB-435 = test system: MDA-MB-435
SF-295 = test system: SF-295
SW-620 = test system: SW-620
HOP-62 = test system: HOP-62
OVCAR-5 = test system: OVCAR-5
SN12C = test system: SN12C
SK-OV-3 = test system: SK-OV-3
BT-549 = test system: BT-549
COLO 205 = test system: COLO 205
SF-268 = test system: SF-268
CAKI-1 = test system: CAKI-1
U-251 = test system: U-251
M14 = test system: M14
UACC-62 = test system: UACC-62
NCI-H226 = test system: NCI-H226
SNB-19 = test system: SNB-19
SF-539 = test system: SF-539
TK-10 = test system: TK-10
MDA-MB-231 = test system: MDA-MB-231
KM12 = test system: KM12
OVCAR-4 = test system: OVCAR-4
MDA-N = test system: MDA-N
SK-MEL-5 = test system: SK-MEL-5
ACHN = test system: ACHN
T47D = test system: T47D
A549 = test system: A549
NCI/ADR-RES = test system: NCI/ADR-RES
SNB-75 = test system: SNB-75
HCT-15 = test system: HCT-15
EKVX = test system: EKVX
NCI-H460 = test system: NCI-H460
SR = test system: SR
HL-60 = test system: HL-60
OVCAR-3 = test system: OVCAR-3
SK-MEL-2 = test system: SK-MEL-2
SK-MEL-28 = test system: SK-MEL-28
OVCAR-8 = test system: OVCAR-8
PC-3 = test system: PC-3
HCT-116 = test system: HCT-116
IGROV-1 = test system: IGROV-1
K562 = test system: K562
CCRF-CEM = test system: CCRF-CEM
Malme-3M = test system: Malme-3M
RXF 393 = test system: RXF 393
UO-31 = test system: UO-31
NCI-H23 = test system: NCI-H23

For `COc1cc(C2c3cc(OC)c(OC)c(O)c3C(=O)C3CCC(=O)N32)cc(OC)c1OC` (stereo not given), the GI50 (Hs-578T) was 56.4 µM (inactive), the GI50 (DU-145) was > 100 µM (inactive) and the GI50 (UACC-257) was > 100 µM (inactive). For the same compound, the GI50 (NCI-H522) was 26 µM (inactive), the GI50 (HOP-92) was 35.3 µM (inactive) and the GI50 (786-0) was > 100 µM (inactive). For the same compound, the GI50 (A498) was > 100 µM (inactive), the GI50 (LOX IMVI) was 40.8 µM (inactive) and the GI50 (HT-29) was 70 µM (inactive). The GI50 (RPMI-8226) was 28.8 µM (inactive), the GI50 (MOLT-4) was 25.6 µM (inactive) and the GI50 (MCF7) was > 100 µM (inactive). The GI50 (HCC 2998) was > 100 µM (inactive), the GI50 (MDA-MB-435) was 16.2 µM (inactive) and the GI50 (SF-295) was > 100 µM (inactive). For the same compound, the GI50 (SW-620) was 35.6 µM (inactive), the GI50 (HOP-62) was > 100 µM (inactive) and the GI50 (OVCAR-5) was > 100 µM (inactive). For the same compound, the GI50 (SN12C) was > 100 µM (inactive), the GI50 (SK-OV-3) was 63 µM (inactive) and the GI50 (BT-549) was 25.2 µM (inactive). The GI50 (COLO 205) was 24.8 µM (inactive), the GI50 (SF-268) was 69.8 µM (inactive) and the GI50 (CAKI-1) was > 100 µM (inactive). For the same compound, the GI50 (U-251) was 86.7 µM (inactive), the GI50 (M14) was > 100 µM (inactive) and the GI50 (UACC-62) was 64 µM (inactive). For the same compound, the GI50 (NCI-H226) was 10.9 µM (inactive), the GI50 (SNB-19) was > 100 µM (inactive) and the GI50 (SF-539) was > 100 µM (inactive). The GI50 (TK-10) was > 100 µM (inactive), the GI50 (MDA-MB-231) was 44.1 µM (inactive) and the GI50 (KM12) was 48.2 µM (inactive). For the same compound, the GI50 (OVCAR-4) was > 100 µM (inactive), the GI50 (MDA-N) was 18.2 µM (inactive) and the GI50 (SK-MEL-5) was 53.1 µM (inactive). For the same compound, the GI50 (ACHN) was > 100 µM (inactive), the GI50 (T47D) was > 100 µM (inactive) and the GI50 (A549) was > 100 µM (inactive). The GI50 (NCI/ADR-RES) was 22 µM (inactive), the GI50 (SNB-75) was 63.7 µM (inactive) and the GI50 (HCT-15) was > 100 µM. For the same compound, the GI50 (EKVX) was > 100 µM (inactive), the GI50 (NCI-H460) was > 100 µM (inactive) and the GI50 (SR) was 89.7 µM (inactive). The GI50 (HL-60) was 26.4 µM (inactive), the GI50 (OVCAR-3) was 34.1 µM (inactive) and the GI50 (SK-MEL-2) was > 100 µM (inactive). For the same compound, the GI50 (SK-MEL-28) was > 100 µM (inactive), the GI50 (OVCAR-8) was 25 µM (inactive) and the GI50 (PC-3) was > 100 µM (inactive). The GI50 (HCT-116) was 93.1 µM (inactive), the GI50 (IGROV-1) was > 100 µM (inactive) and the GI50 (K562) was 29.3 µM (inactive).
`CN1CCC2(c3ccccc3)CC(=O)/C(=C/c3ccc(Cl)c(Cl)c3)C1C2.[O-][Cl+3]([O-])([O-])O` (stereo not given) was tested, and the GI50 (Hs-578T) was 4.47 µM (inactive), the GI50 (DU-145) was 3.25 µM (inactive) and the GI50 (UACC-257) was 9.46 µM (inactive). The GI50 (NCI-H522) was 1.84 µM (inactive), the GI50 (HOP-92) was 2.31 µM (inactive) and the GI50 (786-0) was 2.37 µM (inactive). For the same compound, the GI50 (CCRF-CEM) was 2.02 µM (inactive), the GI50 (A498) was 5.2 µM (inactive) and the GI50 (LOX IMVI) was 1.71 µM (inactive). The GI50 (HT-29) was 1.95 µM (inactive), the GI50 (RPMI-8226) was 2.29 µM (inactive) and the GI50 (MOLT-4) was 2.6 µM (inactive). The GI50 (MCF7) was 3.4 µM (inactive), the GI50 (MDA-MB-435) was 2.11 µM (inactive) and the GI50 (SF-295) was 2.43 µM (inactive). The GI50 (SW-620) was 2.59 µM (inactive), the GI50 (HOP-62) was 3.37 µM (inactive) and the GI50 (OVCAR-5) was 2.35 µM (inactive). For the same compound, the GI50 (SN12C) was 1.85 µM (inactive), the GI50 (SK-OV-3) was 4.05 µM (inactive) and the GI50 (BT-549) was 2.72 µM (inactive). The GI50 (COLO 205) was 1.95 µM (inactive), the GI50 (SF-268) was 1.86 µM (inactive) and the GI50 (CAKI-1) was 3.94 µM (inactive). For the same compound, the GI50 (U-251) was 1.82 µM (inactive), the GI50 (M14) was 2.96 µM (inactive) and the GI50 (UACC-62) was 1.51 µM (inactive). The GI50 (NCI-H226) was 2.09 µM (inactive), the GI50 (SNB-19) was 2.3 µM (inactive) and the GI50 (Malme-3M) was 11.5 µM (inactive). The GI50 (SF-539) was 1.98 µM (inactive), the GI50 (TK-10) was 3.71 µM (inactive) and the GI50 (MDA-MB-231) was 1.69 µM (inactive). For the same compound, the GI50 (KM12) was 1.94 µM (inactive), the GI50 (OVCAR-4) was 2.51 µM (inactive) and the GI50 (MDA-N) was 4.42 µM (inactive). For the same compound, the GI50 (SK-MEL-5) was 2.6 µM (inactive), the GI50 (ACHN) was 1.77 µM (inactive) and the GI50 (T47D) was 4.7 µM (inactive). For the same compound, the GI50 (A549) was 3.4 µM (inactive), the GI50 (NCI/ADR-RES) was 2.78 µM (inactive) and the GI50 (SNB-75) was 3.41 µM (inactive). The GI50 (HCT-15) was 2.14 µM, the GI50 (EKVX) was 2.94 µM (inactive) and the GI50 (RXF 393) was 2.61 µM (inactive). For the same compound, the GI50 (NCI-H460) was 2.35 µM (inactive), the GI50 (SR) was 0.968 µM (active) and the GI50 (HL-60) was 0.333 µM (active). For the same compound, the GI50 (OVCAR-3) was 2.9 µM (inactive), the GI50 (SK-MEL-2) was 3.74 µM (inactive) and the GI50 (SK-MEL-28) was 2.1 µM (inactive). The GI50 (OVCAR-8) was 2.21 µM (inactive), the GI50 (PC-3) was 1.96 µM (inactive) and the GI50 (HCT-116) was 2.62 µM (inactive). For the same compound, the GI50 (UO-31) was 1.95 µM (inactive), the GI50 (IGROV-1) was 1.95 µM (inactive) and the GI50 (NCI-H23) was 2.86 µM (inactive). For the same compound, the GI50 (K562) was 2.52 µM (inactive).
With `CCOC(=O)c1cc(C2=C(S)N(CC(C)CC)CC2)c(C(=O)CC)[nH]1` (stereo not given) the GI50 (Hs-578T) was 26.9 µM (inactive), the GI50 (DU-145) was 16.6 µM (inactive) and the GI50 (UACC-257) was 17.4 µM (inactive). The GI50 (NCI-H522) was 14.9 µM (inactive), the GI50 (HOP-92) was 19.7 µM (inactive) and the GI50 (786-0) was 16.9 µM (inactive). For the same compound, the GI50 (CCRF-CEM) was 4.28 µM (inactive), the GI50 (A498) was 15.6 µM (inactive) and the GI50 (LOX IMVI) was 17.4 µM (inactive). The GI50 (HT-29) was 22.4 µM (inactive), the GI50 (RPMI-8226) was 5.36 µM (inactive) and the GI50 (MOLT-4) was 4.56 µM (inactive). For the same compound, the GI50 (MCF7) was 21.3 µM (inactive), the GI50 (MDA-MB-435) was 15.5 µM (inactive) and the GI50 (SF-295) was 18.2 µM (inactive). For the same compound, the GI50 (SW-620) was 6.01 µM (inactive), the GI50 (SN12C) was 18.7 µM (inactive) and the GI50 (SK-OV-3) was 23.5 µM (inactive). The GI50 (BT-549) was 19.3 µM (inactive), the GI50 (COLO 205) was 11 µM (inactive) and the GI50 (SF-268) was 21.9 µM (inactive). The GI50 (CAKI-1) was 12.9 µM (inactive), the GI50 (U-251) was 13.1 µM (inactive) and the GI50 (UACC-62) was 16.6 µM (inactive). For the same compound, the GI50 (NCI-H226) was 23.5 µM (inactive), the GI50 (SNB-19) was 19.1 µM (inactive) and the GI50 (Malme-3M) was 11.1 µM (inactive). The GI50 (SF-539) was 12 µM (inactive), the GI50 (TK-10) was 15.3 µM (inactive) and the GI50 (MDA-MB-231) was 15.6 µM (inactive). The GI50 (KM12) was 16.9 µM (inactive), the GI50 (OVCAR-4) was 14.5 µM (inactive) and the GI50 (MDA-N) was 14.3 µM (inactive). For the same compound, the GI50 (ACHN) was 15.3 µM (inactive), the GI50 (T47D) was 7.53 µM (inactive) and the GI50 (A549) was 25.1 µM (inactive). The GI50 (NCI/ADR-RES) was 29.5 µM (inactive), the GI50 (SNB-75) was 19.7 µM (inactive) and the GI50 (HCT-15) was 10.2 µM. The GI50 (EKVX) was 17.5 µM (inactive), the GI50 (RXF 393) was 20.7 µM (inactive) and the GI50 (NCI-H460) was 20.6 µM (inactive). For the same compound, the GI50 (SR) was 5.96 µM (inactive), the GI50 (HL-60) was 5.36 µM (inactive) and the GI50 (SK-MEL-2) was 22.1 µM (inactive). The GI50 (SK-MEL-28) was 19.5 µM (inactive), the GI50 (OVCAR-8) was 21.5 µM (inactive) and the GI50 (PC-3) was 19.7 µM (inactive). The GI50 (HCT-116) was 15.3 µM (inactive), the GI50 (UO-31) was 16.8 µM (inactive) and the GI50 (IGROV-1) was 20.3 µM (inactive). The GI50 (NCI-H23) was 19.5 µM (inactive) and the GI50 (K562) was 10 µM (inactive).

Reference: ChEMBL document CHEMBL1201862, “PubChem BioAssay data set” (2004)
